Reference: US5047414A, “2-(aminoalkylthio)methyl-1,4-dihydropyridine, a method for the preparation thereof and pharmaceutical compositions containing them” (Boehringer Biochemia Robin S.p.A., priority 1986, dated 1991)
Where two headings read alike, the source gives them in different places.

Columns and labels:
conscious SH rats [1] = experiment: antihypertensive activity, oral, in conscious SH rats (mean blood pressure); type: in vivo; conditions: for duration of antihypertensive effect (in words): SH rats; for decrease of the mean blood pressure (--BP), maximum / antihypertensive activity: conscious SH rats, oral; for decrease of the mean blood pressure (--BP), maximum: 1.6 mg/kg
Description: The maximum hypotensive effect, proportional to the administered dose, takes place 5-7 hours after the administration and the blood pressure is maintained at the decreased level for further 4-5 hours, at least. […]
Dosages such as 0.2-0.4 mg/Kg are sufficient to stabilize gradually the mean B.P. to lower level for a 24 hrs period. The drop-out of the pharmacological treatment is not combined with an acute hypertensive rebound effect but in the following 2-3 days the mean blood pressure gradually rises to the initial values.

in vivo = conditions: mouse
beagle dogs [2] = experiment: tolerability in male and female beagle dogs, oral bolus administration; conditions: 1.5 mg/kg/day
mice = experiment: acute toxicity in mice (LD50, os and i.p.)
beagle dogs [3] = conditions: dog, in vivo
conscious SH rats [4] = conditions: in the same experimental models; cited from earlier work
[5] = system: K^+ -depolarized rat aorta strips; experiment: inhibition of contractile responses to increasing Ca++ concentration in K+ depolarized rat aorta strips

SMILES | LD50 (in vivo; ip) [mg/kg] | LD50 (in vivo; po) [mg/kg] | other results
CCOC(=O)C1=C(CSCCN)NC(C)=C(C(=O)OC)C1c1cccc([N+](=O)[O-])c1 (racemic) [Compound 11, 2-(2-aminoethylthio)methyl-3-ethoxycarbonyl-5-methoxycarbonyl-4-(m-nitrophenyl)-6-methyl-1,4-dihydropyridine] | 22 | 52 | duration of antihypertensive effect (in words) (conscious SH rats [1]): long lasting effects; decrease of the mean blood pressure (--BP), maximum (conscious SH rats [1]): higher than 85 mmHg; death of dogs (beagle dogs [2]): died after three days treatment
CCOC(=O)C1=C(CSCCNC(C)=O)NC(C)=C(C(=O)OC)C1c1cccc([N+](=O)[O-])c1 (racemic) [rac 2-acetylamino ethyl-thio-methyl, reference compound] |  |  | duration of antihypertensive effect (in words) (conscious SH rats [1]): shorter lasting antihypertensive effect
CCOC(=O)C1=C(CSCCN)NC(C)=C(C(=O)OC)C1c1ccccc1 (centres unmarked) [Compound 1] | 31 | 33 | 
CCOC(=O)C1=C(CSCCN)NC(C)=C(C(=O)OC)C1c1ccccc1C(F)(F)F (centres unmarked) [Compound 2] | 2 | 2 | decrease of the mean blood pressure (--BP), maximum (conscious SH rats [1]): higher than 85 mmHg
CCOC(=O)C1=C(C)NC(CSCCN)=C(C(=O)OCC)C1c1ccccc1C(F)(F)F (centres unmarked) [Compound 3] | 5 | 9 | 
CCOC(=O)C1=C(CSCCN)NC(C)=C(C(=O)OC)C1c1ccccc1[N+](=O)[O-] (centres unmarked) [Compound 4] | 2 | 3 | 
CCOC(=O)C1=C(C)NC(CSCCN)=C(C(=O)OCC)C1c1ccccc1Cl (centres unmarked) [Compound 5] | 9 | 12 | decrease of the mean blood pressure (--BP), maximum (conscious SH rats [1]): higher than 85 mmHg
CCOC(=O)C1=C(CSCCN)NC(C)=C(C(=O)OC)C1c1ccccc1Cl (centres unmarked) [Compound 6, 2-(2-aminoethylthio)methyl-3-ethoxycarbonyl-5-methoxycarbonyl-4-(2-chlorophenyl)-6-methyl-1,4-dihydropyridine] | 4 | 5 | decrease of the mean blood pressure (--BP), maximum (conscious SH rats [1]): higher than 85 mmHg
CCOC(=O)C1=C(CSCCN)NC(C)=C(C(=O)OC)C1c1cccc(Cl)c1 (centres unmarked) [Compound 7] | 23 | 40 | decrease of the mean blood pressure (--BP), maximum (conscious SH rats [1]): higher than 85 mmHg
CCOC(=O)C1=C(CSCCN)NC(C)=C(C(=O)OC)C1c1ccccc1SC (centres unmarked) [Compound 8] | 5 | 8 | 
CCOC(=O)C1=C(CSCCN)NC(C)=C(C(=O)OC)C1c1cccc(C(F)(F)F)c1 (centres unmarked) [Compound 9] | 23 | 40 | 
CCOC(=O)C1=C(C)NC(CSCCN)=C(C(=O)OCC)C1c1cccc([N+](=O)[O-])c1 (centres unmarked) [Compound 10] | 20 | 21 | decrease of the mean blood pressure (--BP), maximum (conscious SH rats [1]): higher than 85 mmHg
CCOC(=O)C1=C(CSCCN(C)C)NC(C)=C(C(=O)OC)C1c1cccc([N+](=O)[O-])c1 (centres unmarked) [Compound 12] | 25 | 38 | decrease of the mean blood pressure (--BP), maximum (conscious SH rats [1]): higher than 85 mmHg
CCOC(=O)C1=C(CSCCN)NC(C)=C(C(=O)OC)C1c1cccc([N+](=O)[O-])c1 (centres unmarked) [Compound 13] | 8 | 21 | 
CCCCNCCSCC1=C(C(=O)OCC)C(c2cccc([N+](=O)[O-])c2)C(C(=O)OC)=C(C)N1 (centres unmarked) [Compound 14] |  | 23 | LD50 in mice, i.p. (mice; mice, i.p.): 12 mg/kg
CCCCNCCSCC1=C(C(=O)OCC)C(c2cccc([N+](=O)[O-])c2)C(C(=O)OC)=C(C)N1 (centres unmarked) [Compound 15] |  |  | LD50 in mice, i.p. (mice; mice, i.p.): 39 mg/kg; LD50 in mice, OS (mice; mice, oral (os)): 40 mg/kg; death of dogs (beagle dogs [2]): died after three days treatment
CCOC(=O)C1=C(CSCC2CCCN2)NC(C)=C(C(=O)OC)C1c1cccc([N+](=O)[O-])c1 (centres unmarked) [Compound 16a] |  |  | LD50 in mice, i.p. (mice; mouse, in vivo, ip): 7 mg/kg; LD50 in mice, OS (mice; mouse, in vivo, po): 17 mg/kg
CCOC(=O)C1=C(CSCC2CCCN2)NC(C)=C(C(=O)OC)C1c1cccc([N+](=O)[O-])c1 (centres unmarked) [Compound 16b] |  |  | LD50 in mice, i.p. (mice; mouse, in vivo, ip): 25 mg/kg; LD50 in mice, OS (mice; mouse, in vivo, po): 39 mg/kg
CCOC(=O)C1=C(CSCC2CCCN2)NC(C)=C(C(=O)OC)C1c1cccc([N+](=O)[O-])c1 (centres unmarked) [Compound 16c] |  |  | LD50 in mice, i.p. (mice; mouse, in vivo, ip): 27 mg/kg; LD50 in mice, OS (mice; mouse, in vivo, po): 55 mg/kg
CCOC(=O)C1=C(CSCC2CCCN2)NC(C)=C(C(=O)OC)C1c1cccc([N+](=O)[O-])c1 (centres unmarked) [Compound 16d] |  |  | antihypertensive activity (conscious SH rats [1]; 3.2 mg/kg): practically inactive; LD50 in mice, i.p. (mice; mouse, in vivo, ip): 1000 mg/kg; LD50 in mice, OS (mice; mouse, in vivo, po): 1000 mg/kg

SMILES | LD50 (in vivo; ip) [mg/kg] | LD50 (in vivo; po) [mg/kg] | other results
CCOC(=O)C1=C(CSCCCN)NC(C)=C(C(=O)OC)C1c1cccc([N+](=O)[O-])c1 (centres unmarked) [Compound 17] | 16 | 22 | 
CCOC(=O)C1=C(CSCCCCN)NC(C)=C(C(=O)OC)C1c1cccc([N+](=O)[O-])c1 (centres unmarked) [Compound 18] | 4 | 11 | 
CCOC(=O)C1=C(C)NC(CSCCNCCC#N)=C(C(=O)OCC)C1c1cccc([N+](=O)[O-])c1 (centres unmarked) [Compound 19] | 54 | 95 | 
CCOC(=O)C1=C(CSCCNCCC#N)NC(C)=C(C(=O)OC)C1c1cccc([N+](=O)[O-])c1 (centres unmarked) [Compound 20, 2-[2-[N-(2-cyanoethyl)aminoethyl]thio]methyl-3-ethoxycarbonyl-5-methoxycarbonyl-4-(m-nitrophenyl)-6-methyl-1,4-dihydropyridine] | 35 | 63 | 
CCOC(=O)C1=C(CSCCN)NC(C)=C([N+](=O)[O-])C1c1cccc([N+](=O)[O-])c1 (centres unmarked) [Compound 21] | 108 | 451 | 
CCOC(=O)C1=C(CSCCN)NC(C)=C(C#N)C1c1cccc([N+](=O)[O-])c1 (centres unmarked) [Compound 22] | 82 | 611 | 
CCOC(=O)C1=C(CSCCN)NC(C)=C(C(=O)OCCN(C)Cc2ccccc2)C1c1cccc([N+](=O)[O-])c1 (centres unmarked) [Compound 23] | 32 | 91 | 
CCOC(=O)C1=C(CSCCN)NC(C)=C(C(=O)OC(C)C)C1c1cccc([N+](=O)[O-])c1 (centres unmarked) [Compound 24] | 25 | 53 | 
COC(=O)C1=C(C)NC(CSCCN)=C(C(=O)OC)C1c1cccc([N+](=O)[O-])c1 (centres unmarked) [Compound 25] | 25 | 53 | 
CCOC(=O)C1=C(CSCCN)NC(C)=C(C(=O)OC)C1c1cccc(OC)c1 (centres unmarked) [Compound 26] | 59 | 82 | 
CCOC(=O)C1=C(CSCCN)NC(C)=C(C(=O)OC)C1c1ccc(F)cc1 (centres unmarked) [Compound 27] | 28 | 46 | 
CCOC(=O)C1=C(CSCCN)NC(C)=C(C(=O)OC)C1c1cccc(C#N)c1 (centres unmarked) [Compound 28] | 43 | 34 | 
CCOC(=O)C1=C(CSCC(N)c2ccccc2)NC(C)=C(C(=O)OC)C1c1cccc([N+](=O)[O-])c1 (centres unmarked) [Compound 29] | 46 | 77 | 
CCOC(=O)C1=C(CSCC(C)N)NC(C)=C(C(=O)OC)C1c1cccc([N+](=O)[O-])c1 (centres unmarked) [Compound 30] | 50 | 42 | 
CCOC(=O)C1=C(CSCC(N)CO)NC(C)=C(C(=O)OC)C1c1cccc([N+](=O)[O-])c1 (centres unmarked) [Compound 31] | 87 | 371 | 
CCOC(=O)C1=C(C)NC(CSCC(N)C(=O)OCC)=C(C(=O)OCC)C1c1cccc([N+](=O)[O-])c1 (centres unmarked) [Compound 32] | 354 | 763 | 
CCOC(=O)C1=C(CSCCNC=O)NC(C)=C(C(=O)OC)C1c1cccc([N+](=O)[O-])c1 (centres unmarked) [Example 3, 2-(2-formylaminoethylthio)-methyl-3-ethoxycarbonyl-5-methoxycarbonyl-4-(m-nitrophenyl)-6-methyl-1.4-dihydropyridine] | 150 | 200 | duration of antihypertensive effect (in words) (conscious SH rats [1]): long lasting effects; antihypertensive activity (conscious SH rats [1]; once daily, very low doses (for ex. 0.2 mg/kg/os)): pronounced and long lasting antihypertensive activity; acute toxicity (in words) (mice; mice where stated): low oral acute toxicity; death of dogs (beagle dogs [3]): do not die after two weeks treatment; tolerability in dogs (beagle dogs [3]): high tolerability
CCOC(=O)C1=C(CSCCNC=O)NC(C)=C(C(=O)OC)C1c1ccccc1SC (centres unmarked) [N-formylation of compound 8] |  | 90 | 
NNc1nncc2ccccc12 [hydralazine] |  |  | reflex tachicardia (other antihypertensive agents) (conscious SH rats [4]): often observed
COC(=O)C1=C(C)NC(C)=C(C(=O)OC)C1c1ccccc1[N+](=O)[O-] [nifedipine] |  |  | dependence of inhibition on incubation time [5]: not related to the incubation time
